# Test results as given in US11319317B2, “(Hetero)arylamide compound for inhibiting protein kinase activity” (Shenzhen TargetRx, Inc., priority 2017, dated 2022).
# Read-outs that look alike come from different tables or passages of the source.
# Experiments:
# [1] = Pharmacokinetic experiment in rats; format: in vivo, Sprague-Dawley rats; design: Cl pred: unit not given here; conditions: rat; for F (oral availability): PO 20 mg/kg vs IV 2 mg/kg; for MRT inf: read-out: MRTINF pred
# Procedure: Rats were fed with a standard diet and water. Fasting began 16 hours before the test. The drugs were dissolved in PEG400 and dimethyl sulfoxide. Blood was collected from the eyelids at a time point of 0.083 hour, 0.25 hour, 0.5 hour, 1 hour, 2 hours, 4 hours, 6 hours, 8 hours, 12 hours, and 24 hours after administration. Rats were briefly anesthetized after inhalation of ether, and 300 μL of blood samples were collected from the eyelids to test tubes. There was 30 μL of 1% heparin salt solution in the test tube. […] After the blood sample was collected at the last time point, rats were anesthetized with ether and sacrificed. Immediately after the collection, blood samples were sufficiently mixed by gently inverting the tube at least 5 times, and were placed on ice. […] Plasma was stored at −80° C. prior to analysis. The concentration of the compounds disclosed herein in plasma was determined by LC-MS/MS. Pharmacokinetic parameters were calculated based on drug concentrations in plasma of each animal at different time points.
# CML = conditions: combined with nilotinib; cited from earlier work
# Ebola virus = conditions: in vitro; cited from earlier work
# Ba/F3 parent cells = assay: Cytotoxicity experiment (CellTiter-Glo), Ba/F3 parent cells; format: cell-based; conditions: Ba/F3 parental cells with 8 ng/ml IL-3, 3 days incubation
# Procedure: 1. […] The cell plates were placed in carbon dioxide culture and incubated overnight.
# 2. Preparation of test compounds: The test compounds were dissolved in DMSO and subjected to a 3.16-fold gradient dilution in triplicate, 9 concentrations were obtained, starting from the concentration of 10 μM.
# 3. Treatment of Cells with compounds: Compounds at various concentrations were transferred to cell plates. The cell plates were incubated in a carbon dioxide incubator for 3 days.
# 4. Detection: CellTiter-Glo4 reagent was added to the cell plates, which were incubated for 30 minutes at room temperature to stabilize the luminescence signal. Readings were performed using a PerkinElmer Envision multi-label analyzer.
# [2] = male, Sprague-Dawley, plasma, IV 2 mg/kg single dose
# [3] = male, Sprague-Dawley, plasma, PO 20 mg/kg single dose
smiles,measurement,setting,value
"O=C(Nc1ccc(OC(F)(F)Cl)cc1)c1cnc(N2CC[C@@H](O)C2)c(-c2ccn[nH]2)c1 [ABL-001, (R)—N-(4-(chlorodifluoromethoxy)phenyl)-6-(3-hydroxypyrrolidin-1-yl)-5-(1H-pyrazol-5-yl)nicotinamide, reference compound]",F (oral availability),[1],19.86%
same,eradication of CML in a mouse model,CML,effective in eradicating CML
Cc1cn(-c2cc(NC(=O)c3ccc(C)c(Nc4nccc(-c5cccnc5)n4)c3)cc(C(F)(F)F)c2)cn1 [nilotinib],release of Ebola viral particles from infected cells,Ebola virus,stop the release of Ebola viral particles
O=C(Nc1ccc(OC(F)(F)Cl)cc1)c1cnc(N2CC[C@@H](O)C2)c(-c2ncns2)c1 [Example 6],IC50,"Ba/F3 parent cells; Mus musculus, BaF3, 72 h",> 1 µM
"O=C(Nc1ccc(OC(F)(F)Cl)cc1)c1cnc(N2CC[C@@H](O)C2)c(-c2cnn[nH]2)c1 [Example 4, (R)-6-(3-hydroxypyrrolidin-1-yl)-5-(1H-1,2,3-triazol-5-yl)-N-(4-(chlorodifluoromethoxy)phenyl)nicotinamide]",IC50,"Ba/F3 parent cells; Mus musculus, BaF3, 72 h",> 1 µM
"O=C(Nc1ccc(OC(F)(F)Cl)cc1)c1cnc(N2CC[C@@H](O)C2)c(-c2ccsn2)c1 [Example 1, (R)-6-(3-hydroxypyrrolidin-1-yl)-5-(isothiazol-3-yl)-N-(4-(chlorodifluoromethoxy)phenyl) nicotinamide]",IC50,"Ba/F3 parent cells; Mus musculus, BaF3, 72 h",> 1 µM
"O=C(Nc1ccc(OC(F)(F)Cl)cc1)c1cnc(N2CC[C@@H](O)C2)c(-c2cnsc2)c1 [Example 2, (R)-6-(3-hydroxypyrrolidin-1-yl)-5-(isothiazol-4-yl)-N-(4-(chlorodifluoromethoxy)phenyl) nicotinamide]",IC50,"Ba/F3 parent cells; Mus musculus, BaF3, 72 h",> 1 µM
same,AUC(0-t),[1]; [2],5450 ng·h/mL
same,Cmax,[1]; [2],5280 ng/mL
same,MRT inf,[1]; [2],1.17 h
same,Vd,"[1]; male, Sprague-Dawley, plasma, IV 2 mg/kg single dose, read-out: Vz pred",0.57 L/kg
same,AUC(0-t),[1]; [3],21100 ng·h/mL
same,Cmax,[1]; [3],2580 ng/mL
same,MRT inf,[1]; [3],5.13 h
same,Cl pred,[1]; IV 2 mg/kg single dose,0.37
same,Cl pred,[1]; PO 20 mg/kg single dose,0.96
same,Vz pred,[1]; PO 20 mg/kg single dose,2.56 L/kg
same,F (oral availability),[1],38.70%
same,"metabolic parameters (Cmax, AUClast, F %) compared with ABL-001",[1]; oral administration,better metabolic parameters
Cc1ccc(NC(=O)c2ccc(CN3CCN(C)CC3)cc2)cc1Nc1nccc(-c2cccnc2)n1 [Imatinib],release of Ebola viral particles from infected cells,Ebola virus,stop the release of Ebola viral particles
"O=C(Nc1ccc(OC(F)(F)Cl)cc1)c1cnc(N2CC[C@@H](O)C2)c(-c2ccns2)c1 [Example 3, (R)-6-(3-hydroxypyrrolidin-1-yl)-5-(isothiazol-5-yl)-N-(4-(chlorodifluoromethoxy)phenyl) nicotinamide]",IC50,"Ba/F3 parent cells; Mus musculus, BaF3, 72 h",> 1 µM
"O=C(Nc1ccc(OC(F)(F)Cl)cc1)c1cnc(N2CC[C@@H](O)C2)c(-c2nnn[nH]2)c1 [Example 5, (R)-6-(3-hydroxypyrrolidin-1-yl)-5-(1H-1,2,34-tetrazol-5-yl)-N-(4-(chlorodifluoromethoxy)phenyl)nicotinamide]",IC50,Ba/F3 parent cells,> 1 µM
